# Laboratory results published in patent US12509460B2 (Skyhawk Therapeutics, Inc., priority 2019, dated 2025).
# Like-named read-outs stand apart in the source and are kept apart here.
# Columns and labels:
# [1] = test system: SMN protein in spinal muscular atrophy (SMA) patient fibroblasts (GM03813, Coriell); assay: SMN protein assay, Mesoscale Discovery (MSD); assay type: cell-based, human; conditions: for EC50: read-out: SMN2 protein EC50
# In short: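 SMA patient fibroblasts (GM03813) seeded at 7000 cells/well and exposed to compound at 2.5 μM to 0.6 nM for 48 hours. Lysates assayed for SMN by MSD immunoassay, with absolute SMN amount calculated from a per-plate SMN standard curve (1 μg/ml to 19.5 pg/ml).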
# [2] = test system: SMN FL and SMN Δ7 in spinal muscular atrophy (SMA) patient fibroblasts (GM03813, Coriell); assay: Quantitative splicing assay (SMN), qPCR; assay type: cell-based, human; conditions: Homo sapiens, Fibroblast, 24 h, read-out: SMN2 Splicing FL EC50
# Method: Spinal muscular atrophy (SMA) patient fibroblasts (GM03813, Coriell) are plated in 96-well plates at 50,000 cells/well. […] Treated cells are lysed and cDNA synthesized using the Fast Advanced Cells-to-Ct kit (Thermofisher A35378) according to the manufacturer's instructions. 2 μL of each cDNA are used in qPCR reactions. […] Reactions are run in a Quant Studio 6 qPCR instrument with default settings.
# [3] = test system: MDR1; assay: Blood-brain-barrier (BBB) penetration potential via MDCK-MDR1 permeability assay; conditions: dog, MDCK-MDR1, pH 7.4, MDCK-MDR1: Efflux
# [4] = test system: MDR1 (P-gp); assay: as above; conditions: dog; for Papp A→B at 120 min, 5 μM: MDCK-MDR1, pH 7.4, MDCK-MDR1: Papp A-B; for Papp B→A at 120 min, 5 μM: MDCK-MDR1, pH 7.4, MDCK-MDR1: Papp B-A
# [5] = test system: MDR1-MDCK cell monolayers; assay: as above
# [6] = test system: mHTT protein in GM04724 (CAG 70/20) Huntington's disease patient lymphoblast cells; assay: mHTT protein assay, 2B7-MW1 assay via Mesoscale Discovery (MSD); assay type: cell-based, human; conditions: for EC50: GM04724 Huntington's disease patient lymphoblasts
# In short: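 Patient lymphoblasts treated 48 h with compound from 10 μM to 0.6 nM. mHTT quantified by MSD 2B7-MW1 immunoassay, whose signal depends on polyQ expansion and HTT size. Viability measured on a replicate plate by CellTiter Glo.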
# [7] = SMA patient fibroblasts GM03813, 48 hours, MSD
# [8] = SMA patient fibroblasts GM03813, 24 h, qPCR
SMILES,"EC50 [1, 7] [nM]","EC50 [2, 8] [nM]","efflux ratio at 120 min, 5 μM ([3]; efflux ratio)","Papp A→B at 120 min, 5 μM ([4]; A-B direction) [×10⁻⁶ cm/s]","Papp B→A at 120 min, 5 μM ([4]; B-A direction) [×10⁻⁶ cm/s]",MDCK-MDR1: % Recov A-B ([5]; A-B direction) [%],MDCK-MDR1: % Recov B-A ([5]; B-A direction) [%],EC50 [6] [nM],"SMN2 protein EC50 [1, 7]","EC50 ([1]; SMA patient fibroblasts (GM03813), 48 hours) [nM]",EC50 ([2]; SMA patient fibroblasts (GM03813)) [nM],"efflux ratio at 120 min, 5 μM [3]","Papp A→B at 120 min, 5 μM ([4]; A-B) [×10⁻⁶ cm/s]","Papp B→A at 120 min, 5 μM ([4]; B-A) [×10⁻⁶ cm/s]",MDCK-MDR1: % Recov A-B ([5]; A-B) [%],MDCK-MDR1: % Recov B-A ([5]; B-A) [%],mHTT protein EC50 ([6]; GM04724 (CAG 70/20) Huntington's disease patient lymphoblasts)
"CN(c1ccc(-c2ccc(-n3cnc(C#N)c3)cc2O)nn1)[C@H]1C[C@@H]2CCC[C@@H](N2)[C@H]1F [Compound 63B, 1-(4-(6-(((1R,2R,3S,5S)-2-fluoro-9-azabicyclo[3.3.1]nonan-3-yl)(methyl)amino)pyridazin-3-yl)-3-hydroxyphenyl)-1H-imidazole-4-carbonitrile]",0.01 to 15,16 to 50,19,2.31,44.9,72,96,16 to 50,–,–,–,–,–,–,–,–,–
"CN(c1ccc(-c2cc3ncn(CC(F)(F)F)c(=O)c3cc2O)nn1)[C@@H]1C[C@H]2CC[C@H](N2)[C@@H]1F [Compound 81A, 7-(6-(((1S,2S,3R,5R)-2-fluoro-8-azabicyclo[3.2.1]octan-3-yl)(methyl)amino)pyridazin-3-yl)-6-hydroxy-3-(2,2,2-trifluoroethyl)quinazolin-4(3H)-one]",16 to 50,51 to 100,139,0.37,51,100,94,101 to 500,–,–,–,–,–,–,–,–,–
"CN(c1ccc(-c2ccc(C#N)cc2O)nn1)[C@@H]1C[C@H]2CC[C@H](N2)[C@@H]1F [Compound 38A, 4-(6-(((1S,2S,3R,5R)-2-fluoro-8-azabicyclo[3.2.1]octan-3-yl)(methyl)amino)pyridazin-3-yl)-3-hydroxybenzonitrile]",–,16 to 50,3,13,39.2,83,85,101 to 500,E (501 ≤ E ≤ 10.000),–,–,–,–,–,–,–,–
"CN(c1ccc(-c2cc3cccnc3cc2O)nn1)[C@@H]1C[C@H]2CC[C@H](N2)[C@@H]1F [Compound 74A, 6-(6-(((1S,2S,3R,5R)-2-fluoro-8-azabicyclo[3.2.1]octan-3-yl)(methyl)amino)pyridazin-3-yl)quinolin-7-ol]",16 to 50,101 to 500,14,3.13,44.5,69,81,16 to 50,–,–,–,–,–,–,–,–,–
"CN(c1ccc(-c2cc3ncn(CC(F)(F)F)c(=O)c3cc2O)nn1)[C@@H]1C[C@H]2CC(F)(F)[C@@H](C1)N2 [Compound 59A, 7-(6-(((1S,3R,5R)-6,6-difluoro-8-azabicyclo[3.2.1]octan-3-yl)(methyl)amino)pyridazin-3-yl)-6-hydroxy-3-(2,2,2-trifluoroethyl)quinazolin-4(3H)-one]",16 to 50,51 to 100,35,2.11,74,97,96,101 to 500,–,–,–,–,–,–,–,–,–
"CN(c1ccc(-c2cc3nnccc3cc2O)nn1)[C@@H]1C[C@H]2CC[C@H](N2)[C@@H]1F [Compound 89A, 7-(6-(((1S,2S,3R,5R)-2-fluoro-8-azabicyclo[3.2.1]octan-3-yl)(methyl)amino)pyridazin-3-yl)cinnolin-6-ol]",16 to 50,101 to 500,51,1.31,67.3,92,106,101 to 500,–,–,–,–,–,–,–,–,–
"CN(c1ccc(-c2ccc(-n3cnc(C#N)c3)cc2O)nn1)[C@@H]1C[C@H]2CC[C@H](N2)[C@@H]1F [Compound 69A, 1-(4-(6-(((1S,2S,3R,5R)-2-fluoro-8-azabicyclo[3.2.1]octan-3-yl)(methyl)amino)pyridazin-3-yl)-3-hydroxyphenyl)-1H-imidazole-4-carbonitrile]",16 to 50,51 to 100,29,1.36,39.4,87,86,101 to 500,–,–,–,–,–,–,–,–,–
"Cc1cc(=O)c2cc(-c3ccc(N(C)[C@@H]4C[C@H]5CC[C@@H]([C@@H]4F)N5C)nn3)c(O)cc2o1 [Compound 100A, 6-(6-(((1S,2S,3R,5R)-2-fluoro-8-methyl-8-azabicyclo[3.2.1]octan-3-yl)(methyl)amino)pyridazin-3-yl)-7-hydroxy-2-methyl-4H-chromen-4-one]",–,–,–,–,–,–,–,–,–,51 to 100,101 to 500,6,6.34,40.7,80,102,E (501 ≤ E ≤ 10.000)
"CN(c1ccc(-c2cc3cccnc3cc2O)nn1)[C@@H]1C[C@H]2CC(F)(F)[C@@H](C1)N2 [Compound 45A, 6-(6-(((1S,3R,5R)-6,6-difluoro-8-azabicyclo[3.2.1]octan-3-yl)(methyl)amino)pyridazin-3-yl)quinolin-7-ol]",16 to 50,101 to 500,6,9.45,54.6,104,115,51 to 100,–,–,–,–,–,–,–,–,–
"CN(C)C(=O)c1cc2cc(O)c(-c3ccc(N(C)[C@H]4C[C@@H]5CC[C@@H](N5)[C@H]4F)nn3)cc2o1 [Compound 9B, 6-(6-(((1R,2R,3S,5S)-2-fluoro-8-azabicyclo[3.2.1]octan-3-yl)(methyl)amino)pyridazin-3-yl)-5-hydroxy-N,N-dimethylbenzofuran-2-carboxamide]",16 to 50,101 to 500,78,0.62,48.2,88,100,101 to 500,–,–,–,–,–,–,–,–,–
"CC#Cc1ccc(-c2ccc(N(C)[C@@H]3C[C@H]4CC[C@H](N4)[C@@H]3F)nn2)c(O)c1 (single isomer, unassigned) [Compound 30A]",0.01 to 15,51 to 100,2,11.1,19.7,35,55,16 to 50,–,–,–,–,–,–,–,–,–
"CN(C)C(=O)c1cc2cc(O)c(-c3ccc(N(C)[C@@H]4C[C@H]5CC[C@H](N5)[C@@H]4F)nn3)cc2o1 [Compound 9A, 6-(6-(((1S,2S,3R,5R)-2-fluoro-8-azabicyclo[3.2.1]octan-3-yl)(methyl)amino)pyridazin-3-yl)-5-hydroxy-N,N-dimethylbenzofuran-2-carboxamide]",0.01 to 15,16 to 50,80,0.76,61.1,108,111,51 to 100,–,–,–,–,–,–,–,–,–
"Cc1ccc(-c2ccc(-c3ccc(N(C)[C@@H]4C[C@H]5CCC[C@H](N5)[C@@H]4F)nn3)c(O)c2)nn1 [Compound 27A, 2-(6-(((1S,2S,3R,5R)-2-fluoro-9-azabicyclo[3.3.1]nonan-3-yl)(methyl)amino)pyridazin-3-yl)-5-(6-methylpyridazin-3-yl)phenol]",0.01 to 15,51 to 100,43,1.08,46.6,90,86,101 to 500,–,–,–,–,–,–,–,–,–
